Test results reported in US6833377B2, “Composition and method for potentiating drugs” (priority 2001, dated 2004).
Values joined by “and” are separate entries in the source; they are usually repeats but may differ in a detail not shown here. Identical values can stand only once.

Assays:
[1] = tested on: low-active rats; experiment: Porsolt's test, low-active rats; assay type: in vivo; settings: drug alone
Procedure: (§1) Antidepressive effects was studied by Porsolt's test [Porsolt R. D., Anton G., Blavet N., Jalfre M. Eur. J. Pharmacol.(1978), 47(4):379-91]. For each rat under study, the total immobilization time was determined during 10 min of forced swimming in a glass vessel at a water temperature of 22° C. The animals were subdivided into three groups according to their immobilization time: highly-, medium- and low-active (immobilization time below 80 sec. 100-140 sec and above 150 sec, respectively).
(§2) I. N., Kryzhanovskii G. N. Biull. Eksp. Biol. Med. (1995) 120(8): 160-3] 30 min before testing at a dose of 15 mg/kg. […] (60 min before a repeated examination in Porsolt's test), and also to low-active rats 30 min. before a repeated study in Porsolt's test.
(§3) To determine the degree of potentiation of the effect of antidepressants, their minimal effective dose within the compositions, which caused a maximal antidepressive effect (immobilization time—below 80 s) in low-active rats and in rats with MPTP-depression was determined.

[2] = tested on: rats with MPTP-depression; experiment: Porsolt's test, rats with MPTP depression (MPTP 15 mg/kg IM); assay type: in vivo; settings: drug alone
Procedure: as §1, §2, §3

[3] = tested on: behavioral depression caused by a toxic dose of MPTP; experiment: Forced swimming test after a toxic dose of MPTP (30 mg/kg IM); assay type: in vivo, rats
Procedure: In a forced swimming test, the ability of amitriptyline and its compositions to eliminate the effect of toxic doses of MPTP was studied. Single administration of high MPTP doses (30 mg/kg) causes acute suppression of motor activity (akinesis), catalepsy, and muscular rigidity. Antidepressants reduce behavioral depression caused by a single administration of toxic doses of MPTP. The behavioral depression was studied in a forced swimming test of a group of active rats after the administration of a toxic dose of MPTP (30 mg/kg IM). Swimming duration (maximal swimming duration—10 min) and the time of forced immobilization during the first 5 min of swimming (under the condition that swimming duration exceeds 5 min) was estimated in the forced swimming test 30 min after MPTP administration. Drugs were administered IM or IG 30 min before MPTP administration.
To estimate the potentiation of the effects of amitriptyline (its ability to reduce toxic effects of MPTP), the minimal effective dose of amitriptyline in the composition, which increased swimming time up to 9-10 min and reduced immobilization time during the first 5 min of swimming down to 20-30 sec was determined.

[4] = tested on: reflex of tail flicking; experiment: Tail-flick test (analgesic effect); assay type: in vivo, rats; settings: drug alone
Procedure: For these studies, solutions of the composition of the invention were used, which. were prepared using distilled water immediately before administration. The solutions were administered either orally (IG), by a rigid metal probe into the cardiac section of the stomach at a total amount of 0.8 ml, or intramuscularly (IM) at an amount of 0.2 ml, 30 min before testing.
The analgesic effect of the components was estimated by an extension of the latent period of the reflex of tail flicking in the “tail-flick” test [Woolf C. J., Barret G. D., Mitchel D., Myers R. A. (1977) Eur. J. Pharmacol. 45(3);311-314] and of the reflex of hind leg flicking in the hyperalgesia test [Coderre T. J., Melzack R. Brain Res. (1987) 404(1-2):95-106].
For the “tail-flick” test, hyperalgesic rats were selected (latent period of tail flicking on placing into water with a temperature of 51° C. was 3-4 sec).

[5] = tested on: phenaminic stereotypy; experiment: Phenaminic stereotypy (antipsychotic effect of haloperidol); assay type: in vivo, rats; settings: haloperidol alone, phenamine 10 mg/kg IM
Procedure: (§4) Antipsychotic effect of neuroleptics was studied using the model of behavioral toxicity “MK-toxicity” caused by a blocker of NMDA receptors MK-801 (Lapin T. P., Rogawski M. A. Behav. Brain Res. (1995) 70(2):145-151) and a model of phenaminic stereotypy caused by phenamine (Kuczenski R., Schmidt D, Leith N. Brain Res. (1977), 126(1):117-129).
(§5) The minimal effective dose of the neuroleptic haloperidol necessary to completely prevent the development of “MK-toxicity” (MK-801 at a dose of 0.4 mg/kg IM) and phenaminic stereotypy (phenamine at a dose of 10 mg/kg IM) in 80% of the rats was calculated. To estimate the potentiation of the antipsychotic effect of haloperidol, the minimal effective dose of haloperidol in compositions, which completely prevents the development of MK-toxicity and phenaminic stereotypy in rats, was determined.

[6] = tested on: MK-toxicity; experiment: MK-toxicity (behavioral toxicity caused by MK-801); assay type: in vivo, rats; settings: haloperidol alone, at this dose only ataxia eliminated, MK-toxicity only partially eliminated
Procedure: as §4, §5

[7] = tested on: catalepsy caused by haloperidol; experiment: Haloperidol catalepsy (inclined grid); assay type: in vivo, rats; settings: for Minimal effective dose of memantine eliminating catalepsy (immobilization time on an inclined grid below 40 seconds), haloperidol 1 mg/kg / Minimal effective dose of memantine eliminating catalepsy (immobilization time on an inclined grid below 40 seconds), haloperidol 3 mg/kg: memantine alone; for Minimal effective dose of memantine eliminating catalepsy (immobilization time on an inclined grid below 40 seconds), haloperidol 3 mg/kg: catalepsy only partially eliminated at this dose (immobilization time 60-70 seconds)
Procedure: Haloperidol catalepsy is a test for selecting anti-parkinson agents [Campbell A., Baldessarini R. J. Cremens M. C. Neuropharmacology (1988), 27(11):1197-9; Ossowska K. J. Neural. Transm. Park. Dis. Dement. Sect. (1994) 8(1-2):39-71]. Catalepsy degree was estimated by the immobilization time (in sec) of a rat placed on a coarse-mesh grid at an angle of 45° during a 3-minute exposition [Campbell A., Baldessarini R. J., Cremens M. C. Neuropharmacology (1988) 27(11):1197-9 ] 30, 60, 90 and 120 minutes after haloperidol administration. Maximal catalepsy was attained in 40-60 minutes after haloperidol administration (immobilization time on the grid was 140-180 sec) and lasted from 2 to 6 hours depending on the dose of haloperidol (1 or 3 mg/kg). The minimal effective dose of the anti-parkinson agent memantine causing a maximal anticataleptic effect (immobilization time on an inclined grid less than 40 sec) 1 hour after haloperidol administration at a dose of 1 and 3 mg/kg was calculated.
To estimate the potentiation effect of memantine, the minimal effective dose of memantine in the composition causing a maximal anticataleptic effect was determined.

[8] = tested on: phenaminic stereotypy; experiment: Potentiation of phenaminic stereotypy (psychostimulant effect of phenamine); assay type: in vivo, rats; settings: phenamine + distilled water
Procedure: The potentiation of the effect of psychostimulants was studied using the model of phenaminic stereotypy [Kuczenski R., Schmidt D., Leith N. Brain Res. (1977), 126(1):117-29]. Phenamine at a dose of 10 mg/kg IM, or 20 mg/kg IG, causes a marked behavioral stereotypy. To estimate the potentiation effect of phenamine, a phenamine dose in the IM or IG introduced composition was determined, which causes the same stereotypy as phenamine alone at a dose of 10 mg/kg, IM or 20 mg/kg, IG.

[9] = IG, amitriptyline 30 mg/kg, alone or with phenylephrine 0.004 mg/kg
[10] = IM, amitriptyline 30 mg/kg, alone or with phenylephrine 0.002 mg/kg (text b94: 0.003)

CN(C)CCC=C1c2ccccc2CCc2ccccc21 [Amitriptyline, amitriptyline]
Minimal effective dose of the antidepressant causing a maximal antidepressive effect (immobilization time below 80 sec), low-active rats ([1]; IG): 2.0 ± 0.24 mg/kg
Minimal effective dose of the antidepressant causing a maximal antidepressive effect (immobilization time below 80 sec), low-active rats ([1]; IG, listed as amitriptyline): 2 mg/kg
Minimal effective dose of the antidepressant causing a maximal antidepressive effect (immobilization time below 80 sec), low-active rats ([1]; IM): 5.2 ± 0.6 mg/kg
Minimal effective dose of the antidepressant causing a maximal antidepressive effect (immobilization time below 80 sec), low-active rats ([1]; IM, listed as amitriptyline): 5.0 mg/kg
Minimal effective dose of the antidepressant causing a maximal antidepressive effect (immobilization time below 80 sec), highly active rats with MPTP depression ([2]; IG): 2.5 ± 0.5 mg/kg
Minimal effective dose of the antidepressant causing a maximal antidepressive effect (immobilization time below 80 sec), highly active rats with MPTP depression ([2]; IG, listed as amitriptyline): 2.5 mg/kg
Minimal effective dose of the antidepressant causing a maximal antidepressive effect (immobilization time below 80 sec), highly active rats with MPTP depression ([2]; IM): 7.0 ± 0.8 mg/kg
Minimal effective dose of the antidepressant causing a maximal antidepressive effect (immobilization time below 80 sec), highly active rats with MPTP depression ([2]; IM, listed as amitriptyline): 7.2 mg/kg
Duration of forced swimming until drowning 30 min after MPTP 30 mg/kg (maximal recorded time 600 seconds) [3, 9]: 340 s and 340 ± 37 s
Immobilization time during the first 5 minutes of forced swimming, 30 min after MPTP 30 mg/kg [3, 9]: 78 s and 78 ± 8.5 s
Duration of forced swimming until drowning 30 min after MPTP 30 mg/kg (maximal recorded time 600 seconds) ([3]; IM, amitriptyline 20 mg/kg): 220 ± 25 s
Duration of forced swimming until drowning 30 min after MPTP 30 mg/kg (maximal recorded time 600 seconds) [3, 10]: 410 s and 410 ± 46 s
Immobilization time during the first 5 minutes of forced swimming, 30 min after MPTP 30 mg/kg [3, 10]: 61 s and 61 ± 6.3 s

Cc1c(N(C)CS(=O)(=O)[O-])c(=O)n(-c2ccccc2)n1C.[Na+] [Dipyrone]
Minimal effective dose of the analgesic causing maximal analgesia in tail-flick test (latent period of tail flicking reflex more than 30 sec) ([4]; IG): 20 mg/kg and 20 ± 2.3 mg/kg

CNCCC(Oc1ccc(C(F)(F)F)cc1)c1ccccc1 (stereo not drawn) [Fluoxetine]
Minimal effective dose of the antidepressant causing a maximal antidepressive effect (immobilization time below 80 sec), low-active rats ([1]; IG): 5.5 mg/kg and 5.5 ± 0.7 mg/kg
Minimal effective dose of the antidepressant causing a maximal antidepressive effect (immobilization time below 80 sec), low-active rats ([1]; IM): 10.6 mg/kg and 10.6 ± 1.2 mg/kg
Minimal effective dose of the antidepressant causing a maximal antidepressive effect (immobilization time below 80 sec), highly active rats with MPTP depression ([2]; IM): 16.2 mg/kg and 16 ± 2.1 mg/kg

O=C(CCCN1CCC(O)(c2ccc(Cl)cc2)CC1)c1ccc(F)cc1 [Haloperidol, haloperidol]
Minimal effective dose of haloperidol completely preventing phenaminic stereotypy in 80% of rats ([5]; IG): 0.18 ± 0.022 mg/kg
Minimal effective dose of haloperidol completely preventing phenaminic stereotypy in 80% of rats ([5]; IG, listed as haloperidol): 0.18 mg/kg
Minimal effective dose of haloperidol completely preventing phenaminic stereotypy in 80% of rats ([5]; IM): 0.15 ± 0.017 mg/kg
Minimal effective dose of haloperidol completely preventing phenaminic stereotypy in 80% of rats ([5]; IM, listed as haloperidol): 0.15 mg/kg
Minimal effective dose of haloperidol completely preventing MK-toxicity (MK-801 0.4 mg/kg IM) ([6]; IG): > 1 mg/kg
Minimal effective dose of haloperidol completely preventing MK-toxicity (MK-801 0.4 mg/kg IM) ([6]; IG, listed as haloperidol): > 1 mg/kg
Minimal effective dose of haloperidol completely preventing MK-toxicity (MK-801 0.4 mg/kg IM) ([6]; IM): > 1 mg/kg
Minimal effective dose of haloperidol completely preventing MK-toxicity (MK-801 0.4 mg/kg IM) ([6]; IM, listed as haloperidol): > 1 mg/kg

CC12CC3CC(C)(C1)CC(N)(C3)C2 [Memantine, memantine]
Minimal effective dose of memantine eliminating catalepsy (immobilization time on an inclined grid below 40 seconds), haloperidol 1 mg/kg ([7]; IG): 11.5 mg/kg and 11.5 ± 1.2 mg/kg
Minimal effective dose of memantine eliminating catalepsy (immobilization time on an inclined grid below 40 seconds), haloperidol 3 mg/kg ([7]; IG): > 16.0 mg/kg
Minimal effective dose of memantine eliminating catalepsy (immobilization time on an inclined grid below 40 seconds), haloperidol 3 mg/kg ([7]; IG, listed as memantine): > 16 mg/kg
Minimal effective dose of memantine eliminating catalepsy (immobilization time on an inclined grid below 40 seconds), haloperidol 1 mg/kg ([7]; IM): 7.5 ± 0.7 mg/kg
Minimal effective dose of memantine eliminating catalepsy (immobilization time on an inclined grid below 40 seconds), haloperidol 3 mg/kg ([7]; IM): > 15.0 mg/kg
Minimal effective dose of memantine eliminating catalepsy (immobilization time on an inclined grid below 40 seconds), haloperidol 3 mg/kg ([7]; IM, listed as memantine): > 15 mg/kg
Minimal effective dose of memantine eliminating catalepsy (immobilization time on an inclined grid below 40 seconds), haloperidol 1 mg/kg ([7]; IM, listed as memantine): 7.5 mg/kg
Immobilization time of rats on an inclined grid, catalepsy caused by haloperidol 3 mg/kg ([7]; memantine 15 mg/kg IM): 60 to 70 s
Immobilization time of rats on an inclined grid, catalepsy caused by haloperidol 3 mg/kg ([7]; memantine 16 mg/kg IG): 60 to 70 s

CN1CC[C@]23c4c5ccc(O)c4O[C@H]2[C@@H](O)C=C[C@H]3[C@H]1C5 [Morphine, morphine]
Minimal effective dose of the analgesic causing maximal analgesia in tail-flick test (latent period of tail flicking reflex more than 30 sec) ([4]; IG): 3 ± 0.35 mg/kg
Minimal effective dose of the analgesic causing maximal analgesia in tail-flick test (latent period of tail flicking reflex more than 30 sec) ([4]; IG, listed as morphine): 3 mg/kg
Minimal effective dose of the analgesic causing maximal analgesia in tail-flick test (latent period of tail flicking reflex more than 30 sec) ([4]; IM): 3.0 ± 0.37 mg/kg
Minimal effective dose of the analgesic causing maximal analgesia in tail-flick test (latent period of tail flicking reflex more than 30 sec) ([4]; IM, listed as morphine): 3 mg/kg

CC(N)Cc1ccccc1 (stereo not drawn) [Phenamine, phenamine]
Dose of phenamine causing the same behavioral stereotypy as phenamine 10 mg/kg IM ([8]; IG): 20.2 ± 2.3 mg/kg
Dose of phenamine causing the same behavioral stereotypy as phenamine 10 mg/kg IM ([8]; IG, listed as phenamine): 20 mg/kg
Dose of phenamine causing the same behavioral stereotypy as phenamine 10 mg/kg IM ([8]; IM): 10.0 ± 1.1 mg/kg
Dose of phenamine causing the same behavioral stereotypy as phenamine 10 mg/kg IM ([8]; IM, listed as phenamine): 10 mg/kg
